Assay results taken from patent US5506252A, “Substituted N-heteroaryl and N-aryl-1,2-diaminocyclobutene-3,4-diones” (American Home Products Corporation, priority 1994, dated 1996).

Test system: Isolated Rat Bladder Strips
Assay: Inhibition of contractions in isolated rat bladder strips (smooth muscle relaxing activity, KCl-enhanced contractions)
Format: cell-based, Sprague-Dawley rats
Details: 0.5 h, 15 mM KCl added, 30 minute challenge; for inhibition at 30 µM: read-out: Inhibition of Force (%) at (x) μM; for IC50: read-out: IC50 (concentration required to elicit 50% inhibition of pre-drug contractile activity)
Text: The smooth muscle relaxing activity of the compounds of this invention was established in accordance with standard pharmaceutically accepted test procedures in representative compounds as follows:
Sprague-Dawley rats (150-200 g) are rendered unconscious by CO2 asphyxiation and then euthanized by cervical dislocation. The bladder is removed into warm (37 deg. C.) physiological salt solution (PSS) of the following composition (mM): NaCl, 118.4; KCl, 4.7; CaCl2, 2.5; […]; NaHCO3, 24.9; KH2 PO4, 1.2; glucose, 11.1; EDTA, 0.023; gassed with […]; pH 7.4. The bladder is opened and then cut into strips 1-2 mm in width and 7-10 mm in length. The strips are subsequently suspended in a 10 mL tissue bath under an initial resting tension of 1.5 g. The strips are held in place by two surgical clips one of which is attached to a fixed hook while the other is attached to an isometric force transducer. […] The carbachol is then washed out and the tissue allowed to relax to its resting level of activity. Following one further 30 minute period of recovery, an additional 15 mM KCl are introduced into the tissue bath. This increase in KCl concentration results in a large increase in the amplitude of spontaneous contractions (and initiation of contractions in previously quiescent strips) superimposed upon a small increase in basal tone. Following stabilization of this enhanced level of contractile activity, incremental increases in the concentration of test compound or vehicle are introduced into the tissue bath. Contractile activity is measured for each compound or vehicle concentration during the last minute of a 30 minute challenge.
The isometric force developed by the bladder strips is measured using a […] to elicit 50% inhibition of pre-drug contractile activity (IC50 concentration) is calculated from this concentration-response curve.

| Compound | inhibition at 30 µM [%] | IC50 [nM] |
| --- | --- | --- |
| CC(C)(C)Nc1c(Nc2cnc3ccccc3c2)c(=O)c1=O [Example 14, 3-Tert-butylamino-4-(quinolin-3-ylamino)-cyclobut-3-ene-1,2-dione] | 51 | – |
| Nc1c(Nc2cccnc2)c(=O)c1=O [Example 6] | 31 | – |
| CCc1cc(C#N)ccc1Nc1c(N[C@H](C)C(C)(C)C)c(=O)c1=O [Example 24, (+)-(R )-4-[3,4-Dioxo-2-(1,2,2-trimethyl-propylamino)-cyclobut-1-enylamino]-3-ethyl-benzonitrile] | – | 21 |
| CC(C)(C)Nc1c(Nc2cccnc2)c(=O)c1=O [Example 7, 3-Tert-butylamino-4-(pyridin-3-ylamino)-cyclobut-3-ene-1,2-dione] | – | 2800 |
| CC(Nc1c(Nc2cccc3cccnc23)c(=O)c1=O)C(C)(C)C (stereo not shown) [Example 10, 3-(Quinolin-8-ylamino)-4-(1,2,2-trimethyl-propylamino)-cyclobut-3-ene-1,2-dione] | – | 8000 |
| CC(C)(C)Nc1c(Nc2cccc3cnccc23)c(=O)c1=O [Example 8, 3-Tert-butylamino-4-(isoquinolin-5-ylamino)-cyclobut-3-ene-1,2-dione] | – | 1840 |
| CC(C)(C)Nc1c(Nc2ccc3cn[nH]c3c2)c(=O)c1=O [Example 19, 3-Tert-butylamino-4-(1H-indazol-6-ylamino)-cyclobut-3-ene-1,2-dione] | – | 6340 |
| CC(Nc1c(Nc2cccnc2)c(=O)c1=O)C(C)(C)C (stereo not shown) [Example 3, 3-(Pyridin-3-ylamino)-4-(1,2,2-trimethyl-propylamino)-cyclobut-3-ene-1,2-dione] | – | 1950 |
| Nc1c(Nc2cccc3cnccc23)c(=O)c1=O [Example 9, 3-Amino-4-(isoquinolin-5-ylamino)-cyclobut-3-ene-1,2-dione] | 43 | – |
| O=c1c(Nc2ccncc2)c(N[C@H]2C[C@@H]3CC[C@H]2C3)c1=O (relative stereo) [Example 2, (Exo)-3-(bicyclo[2.2.1]hept-2-ylamino)-4-(pyridin-4-ylamino)-cyclobut-3,-ene-1,2-dione] | – | 15800 |
| CC(Nc1c(Nc2ccncc2)c(=O)c1=O)C(C)(C)C (stereo not shown) [Example 1, 3-(Pyridin-4-ylamino)-4-(1,2,2-trimethyl-propylamino)-cyclobut-3-ene-1,2-dione] | – | 1360 |
| CC(Nc1c(Nc2ccc(C#N)cc2)c(=O)c1=O)C(C)(C)C (stereo not shown) [Example 21, 4-[3,4-Dioxo-2-(1,2,2-trimethyl-propylamino)-cyclobut-1-enylamino]-benzonitrile] | – | 520 |
| COc1cc(C#N)ccc1Nc1c(N[C@H](C)C(C)(C)C)c(=O)c1=O [Example 25, (+)-(R)-4-[3,4-Dioxo-2-(1,2,2-trimethyl-propylamino)-cyclobut-1-enylamino]-3-methoxy-benzonitrile] | – | 290 |
